Reference: article PMC7700809 (Molecular Biomedicine, 2020)
Read-outs that look alike come from different tables or passages of the source.

Experiments:
[1] = Lung distribution in rats after oral administration
Description: The male mice (20–25 g) and Sprague-Dawley rats (180–220 g) were provided by Laboratory Animal Center of Anhui Medical University (Hefei, China), and the beagle dogs were obtained from Nanjing Bosgene Biotech Co., Ltd. All the animals were housed under control conditions (temperature 23 ± 2 °C, humidity 50% ± 5%, 12 h dark/light cycle) with standardized diet and acclimatized for 7 days, prior to the experiments.
Seventy-two mice or rats were randomly and equally divided into two groups. […] Tissues (liver, lung, and kidney) were promptly harvested at 1, 2, 4, 6, 9, 12, 24, 48, 72, and 144 h. Each tissue sample was homogenized (Tissue sample:saline ratio of 1:5, w/v). Tissue samples were stored at − 80 °C until further analysis. The preparation process for analysis was the same as described above for plasma.
The LC-MS/MS system consisted of a SHIMADZU LC-30 AD series HPLC system (Shimadzu, Kyoto, Japan) and API4000 triple quadrupole mass spectrometer (Applied Biosystems Sciex, Ont., Canada) with electrospray ionization (ESI) source. Separation was carried out on a C18 column (2.1 × 100 mm, 5 μm, Hanbon, Jiangsu, China) kept at 40 °C. The mobile phase consisted of water (containing 0.1% formic acid, mobile phase A) and methanol (mobile phase B) with rate set at 0.3 mL/min. The optimal gradient elution curve included 0–1.0 min, 10% B; a linear increase to 90% a within 0.5 min; 90% B for 3.5 min; a linear decrease to 10% B within 0.5 min. 10% B for 1.5 min; 7.00 min, stop.
LC-MS/MS was performed in the positive and multiple reaction monitoring (MRM) mode.

[2] = In vivo plasma pharmacokinetics in rats; parameters: species or system Sprague-Dawley rats; settings: Rat; for MRT last: read-out: MRT0-t; for MRT inf: read-out: MRT0-∞
Description: After dosage, blood samples were collected into heparinized tubes at 2, 5, 15, 30, 60, 120, 240, 360, 540, and 720 min for the i.v. group, and at 5, 15, 30, 60, 90, 120, 240, 360, 540, 720 and 1440 min for the i.g. group. Plasma (100 μL) was isolated from the blood sample by centrifuging at 4 °C and 6000 rpm for 3 min and then stored at − 80 °C until analysis. An aliquot of 100 μL of each plasma sample was mixed with 20 μL of internal standard working solution (200 ng/mL of caffeine). Methanol (400 μL) was then added for precipitation. After vortexing for 5 min and centrifuging at 14000 rpm for 10 min, 5 μL of the supernatant was injected for LC-MS/MS analysis.
The PK parameters were analyzed through the noncompartment model using WinNonlin 6.1 software (Pharsight Corporation, Mountain View, USA), including half-life (T1/2), the peak of the plasma concentration (Cmax), the time to peak of the plasma concentration (Tmax), the area under the plasma concentration-time curve during the period of observation (AUC0-t), the area under the plasma concentration-time curve from zero to infinity (AUC0-∞), clearance (CL), apparent volume of distribution (Vd), and the mean residence time.

[3] = mice
[4] = test system: SARS-CoV-2; assay: microbe, parasite or virus in culture; format: cell-based; settings: Severe acute respiratory syndrome coronavirus 2, Vero; read-out: EC50 virus entry blocking
[5] = test system: IL-6; assay: LPS induced IL-6 protein level in M1 polarized THP-1 macrophages (ELISA); format: cell-based, Human; settings: 0.01 μM, 36 h
Description: Results are expressed as means ±S.D. (n = 3).
Human monocytic THP-1 cells were maintained in RPMI 1640 medium (Corning, USA) supplemented with 2% L-glutamine,10% fetal bovine serum (FBS), 1% penicillin/ streptomycin and […] ß-mercaptoethanol. THP-1 monocytes are differentiated into macrophages by 24 h incubation with 150 nM phorbol 12-myristate 13-acetate (PMA, Sigma, P8139) followed by 24 h incubation in RPMI medium. Macrophages were polarized in M1 macrophages by incubation with 20 ng/ml of IFN-γ (R&D system, #285-IF) and 100 ng/ml of LPS (Sigma, #8630). […] Cytokine secretion in the culture medium was assayed using an ELISA kit according to the procedure recommended by the supplier (IL-6 (MultiSciences, 70-EK106/2–96), TNFα (MultiSciences,70-EK182HS-96)).

[6] = Sprague-Dawley, iv, I.V. 1 mg/kg
[7] = Sprague-Dawley, po, P.O. 10 mg/kg

`CC[C@H]1CN2CCc3cc(OC)c(OC)cc3[C@@H]2C[C@@H]1C[C@H]1NCCc2cc(OC)c(OC)cc21` [Emetine] showed a Rat lung con. ([1]; 1 mg/kg (P.O.) single dose, 1 h) of 0.15 ± 0.03 ng/mL, a Rat lung con. ([1]; 1 mg/kg (P.O.) single dose, 2 h) of 0.26 ± 0.06 ng/mL and a Rat lung con. ([1]; 1 mg/kg (P.O.) single dose, 4 h) of 0.93 ± 0.32 ng/mL. The Rat lung con. ([1]; 1 mg/kg (P.O.) single dose, 6 h) was 1.01 ± 0.10 ng/mL, the Rat lung con. ([1]; 1 mg/kg (P.O.) single dose, 9 h) was 1.47 ± 0.09 ng/mL and the Rat lung con. ([1]; 1 mg/kg (P.O.) single dose, 12 h) was 1.61 ± 0.48 ng/mL. The Rat lung con. ([1]; 1 mg/kg (P.O.) single dose, 24 h) was 1.32 ± 0.63 ng/mL, the Rat lung con. ([1]; 1 mg/kg (P.O.) single dose, 48 h) was 0.76 ± 0.11 ng/mL and the Rat lung con. ([1]; 1 mg/kg (P.O.) single dose, 72 h) was 0.36 ± 0.08 ng/mL. The Rat lung con. ([1]; 1 mg/kg (Q.D.× 3 days, P.O.), 1 h) was 5.78 ± 0.61 ng/mL, the Rat lung con. ([1]; 1 mg/kg (Q.D.× 3 days, P.O.), 2 h) was 6.51 ± 0.67 ng/mL and the Rat lung con. ([1]; 1 mg/kg (Q.D.× 3 days, P.O.), 4 h) was 6.65 ± 1.21 ng/mL. For the same molecule, the Rat lung con. ([1]; 1 mg/kg (Q.D.× 3 days, P.O.), 6 h) was 6.96 ± 0.87 ng/mL, the Rat lung con. ([1]; 1 mg/kg (Q.D.× 3 days, P.O.), 9 h) was 8.34 ± 1.09 ng/mL and the Rat lung con. ([1]; 1 mg/kg (Q.D.× 3 days, P.O.), 12 h) was 8.16 ± 1.58 ng/mL. For the same molecule, the Rat lung con. ([1]; 1 mg/kg (Q.D.× 3 days, P.O.), 24 h) was 7.25 ± 0.79 ng/mL, the Rat lung con. ([1]; 1 mg/kg (Q.D.× 3 days, P.O.), 48 h) was 5.97 ± 0.81 ng/mL and the Rat lung con. ([1]; 1 mg/kg (Q.D.× 3 days, P.O.), 72 h) was 4.89 ± 1.35 ng/mL. For the same molecule, the Lung concentration ([1]; rats, 1 mg/kg single oral dose, 12 h, 1 mg/kg) was 1.6 µM, the “time of maximum lung concentration (Cmax)” value ([1]; rats, 1 mg/kg/day oral 3 days) was 9 h and the AUMC0-t ([2]; I.V. 1 mg/kg) was 131 ± 18 hr*hr.*ng/mL. The “AUMC0-∞” value ([2]; I.V. 1 mg/kg) was 320 ± 141 hr*hr.*ng/mL, the AUMC0-t ([2]; P.O. 10 mg/kg) was 1989 ± 15 hr*hr.*ng/mL and the “AUMC0-∞” value ([2]; P.O. 10 mg/kg) was 3676 ± 1871 hr*hr.*ng/mL. The Cl ([2]; P.O. 10 mg/kg) was 45,918 ± 5515 mL/hr./kg, the AUC(0-inf) [2, 6] was 39.8 ± 11.3 ng·h/mL and the AUC(0-t) [2, 6] was 29.8 ± 6.1 ng·h/mL. It also gave a C0 [2, 6] of 33.5 ± 2.4 ng/mL, a Cmax [2, 6] of 26.9 ± 4.8 ng/mL and a Tmax [2, 6] of 0.03 h. For the same molecule, the clearance [2, 6] was 445 mL/min/kg, the half-life [2, 6] was 4.46 ± 1.18 h and the MRT last [2, 6] was 4.41 ± 0.31 h. It also gave an MRT inf [2, 6] of 7.76 ± 1.81 h, a Vd ([2]; Sprague-Dawley, iv, I.V. 1 mg/kg, read-out: Vz) of 163 L/kg and an AUC(0-inf) [2, 7] of 220 ± 28 ng·h/mL. The AUC(0-t) [2, 7] was 172 ± 18 ng·h/mL, the Cmax [2, 7] was 12.2 ± 3.3 ng/mL and the Tmax [2, 7] was 9 h. For the same molecule, the half-life [2, 7] was 5.16 ± 4.16 h, the bioavailability ([2]; Sprague-Dawley, po, P.O. 10 mg/kg vs I.V. 1 mg/kg, read-out: F (oral bioavailability)) was 55.3 ± 7.1% and the MRT last [2, 7] was 11.6 ± 1.33 h. For the same molecule, the MRT inf [2, 7] was 16.2 ± 6 h, the Lung concentration ([3]; 1 mg/kg I.V. (12 h value of Table s2)) was 3.8 µM and the Kidney concentration ([3]; I.V. 1 mg/kg, 0.033 h) was 8.52 ± 1.25 µM. The Liver concentration ([3]; I.V. 1 mg/kg, 0.033 h) was 4.11 ± 1.25 µM, the Plasma concentration ([3]; I.V. 1 mg/kg, 0.033 h) was 150 ± 60 nM and the Kidney concentration ([3]; I.V. 1 mg/kg, 0.083 h) was 8.04 ± 0.57 µM. The Liver concentration ([3]; I.V. 1 mg/kg, 0.083 h) was 3.05 ± 0.23 µM, the Lung concentration ([3]; I.V. 1 mg/kg, 0.083 h) was 16.5 ± 1.59 µM and the Plasma concentration ([3]; I.V. 1 mg/kg, 0.083 h) was 110 ± 20 nM. For the same molecule, the Kidney concentration ([3]; I.V. 1 mg/kg, 0.5 h) was 9.48 ± 1.10 µM, the Liver concentration ([3]; I.V. 1 mg/kg, 0.5 h) was 5.01 ± 1.13 µM and the Lung concentration ([3]; I.V. 1 mg/kg, 0.5 h) was 10.3 ± 1.45 µM. It also gave a Plasma concentration ([3]; I.V. 1 mg/kg, 0.5 h) of 40 ± 20 nM, a Kidney concentration ([3]; I.V. 1 mg/kg, 1 h) of 9.24 ± 0.44 µM and a Liver concentration ([3]; I.V. 1 mg/kg, 1 h) of 4.78 ± 0.43 µM. The Lung concentration ([3]; I.V. 1 mg/kg, 1 h) was 7.73 ± 1.22 µM, the Plasma concentration ([3]; I.V. 1 mg/kg, 1 h) was 30 ± 6 nM and the Kidney concentration ([3]; I.V. 1 mg/kg, 2 h) was 9.04 ± 0.15 µM. The Liver concentration ([3]; I.V. 1 mg/kg, 2 h) was 6.12 ± 1.37 µM, the Lung concentration ([3]; I.V. 1 mg/kg, 2 h) was 7.12 ± 2.30 µM and the Plasma concentration ([3]; I.V. 1 mg/kg, 2 h) was 12 ± 3 nM. The Kidney concentration ([3]; I.V. 1 mg/kg, 4 h) was 6.16 ± 0.77 µM, the Liver concentration ([3]; I.V. 1 mg/kg, 4 h) was 6.46 ± 0.57 µM and the Lung concentration ([3]; I.V. 1 mg/kg, 4 h) was 5.85 ± 1.20 µM. It also gave a Plasma concentration ([3]; I.V. 1 mg/kg, 4 h) of 7 ± 1 nM, a Liver concentration ([3]; I.V. 1 mg/kg, 6 h) of 6.87 ± 0.65 µM and a Lung concentration ([3]; I.V. 1 mg/kg, 6 h) of 5.42 ± 0.13 µM. For the same molecule, the Plasma concentration ([3]; I.V. 1 mg/kg, 6 h) was 9 ± 4 nM, the Kidney concentration ([3]; I.V. 1 mg/kg, 9 h) was 5.96 ± 0.76 µM and the Liver concentration ([3]; I.V. 1 mg/kg, 9 h) was 9.22 ± 0.81 µM. It also gave a Lung concentration ([3]; I.V. 1 mg/kg, 9 h) of 5.63 ± 1.00 µM, a Plasma concentration ([3]; I.V. 1 mg/kg, 9 h) of 8 ± 4 nM and a Kidney concentration ([3]; I.V. 1 mg/kg, 12 h) of 4.29 ± 0.79 µM. The Liver concentration ([3]; I.V. 1 mg/kg, 12 h) was 8.17 ± 1.46 µM, the Lung concentration ([3]; I.V. 1 mg/kg, 12 h) was 3.77 ± 0.96 µM and the Plasma concentration ([3]; I.V. 1 mg/kg, 12 h) was 7 ± 5 nM. For the same molecule, the Kidney concentration ([3]; I.V. 1 mg/kg, 48 h) was 0.879 ± 0.278 µM, the Liver concentration ([3]; I.V. 1 mg/kg, 48 h) was 1.67 ± 0.872 µM and the Lung concentration ([3]; I.V. 1 mg/kg, 48 h) was 1.67 ± 0.28 µM. The Liver concentration ([3]; I.V. 1 mg/kg, 72 h) was 0.620 ± 0.024 µM, the Lung concentration ([3]; I.V. 1 mg/kg, 72 h) was 0.852 ± 0.075 µM and the Kidney concentration ([3]; I.V. 1 mg/kg, 144 h) was 0.174 ± 0.018 µM. For the same molecule, the Liver concentration ([3]; I.V. 1 mg/kg, 144 h) was 0.129 ± 0.041 µM, the Lung concentration ([3]; I.V. 1 mg/kg, 144 h) was 0.263 ± 0.034 µM and the AUMC0-t ([3]; I.V. 1 mg/kg, Kidney) was 193,238 hr*hr.*ng/mL. For the same molecule, the “AUMC0-∞” value ([3]; I.V. 1 mg/kg, Kidney) was 2,810,677 hr*hr.*ng/mL, the AUMC0-t ([3]; I.V. 1 mg/kg, Liver) was 275,511 hr*hr.*ng/mL and the “AUMC0-∞” value ([3]; I.V. 1 mg/kg, Liver) was 3,897,180 hr*hr.*ng/mL. The AUMC0-t ([3]; I.V. 1 mg/kg, Lung) was 181,502 hr*hr.*ng/mL, the “AUMC0-∞” value ([3]; I.V. 1 mg/kg, Lung) was 1,038,814 hr*hr.*ng/mL and the EC50 [4] was 19 nM. For the same molecule, the “LPS induced IL-6 expression level” value [5] was “significantly reduce”.
